Assay results from patent US20090197279A1, “MICROTUBULE SYNTHESIS AS A BIOMARKER” (KINEMED, INC., priority 2005, published 2009).

What was measured:
[1] = test system: hippocampal tubulin dimers and tau-associated, tau-nonassociated (MAP2/STOP) and cold-stable microtubules; assay: 2H label incorporation into hippocampal tubulin dimers and microtubule fractions after ICVC infusion (2H2O labeling, GC/MS); assay type: in vivo, mouse; conditions: for label incorporation into new MAP2/STOP-MTs: vs water
Experimental: In (A) and (B), mice received ICVC infusions of 6 μl water alone or containing 0.48 nmol glutamate (80 μM in the infusate), or glutamate plus 0.66 pmol Rp-cAMP (110 nM in the infusate). Animals were then labeled with ^2H2O for 8 hours (A) or 24 hours (B). At sacrifice, the hippocampal post-nuclear supernatant was fractionated as show in FIG. 5A; a separate aliquot was used for isolation of cold stable (CS) MTs (FIG. 5D). Glutamate injection stimulated label incorporation into new MAP2/STOP-MTs at 8 and 24 hours, and CS MTs at 24 hours; both were blocked by Rp-cAMP. In order to correct the effects of pharmacologic intervention on MT dynamics for the confounding changes in tubulin synthesis, the numbers above each bar express ^2H label incorporation into MT as a percentage of ^2H labeling in the corresponding tubulin dimer fractions. (C) Dose dependence of glutamate effects. ^2H2O labeling was initiated at time zero, 6 μl ICVC infusions with the indicated concentrations of glutamate were performed at 24 hours, and labeling was continued until sacrifice at 48 hours (24 hours post glutamate infusion). Hippocampal MTs were fractionated into tau-associated, MAP2-associated, and non-associated (STOP-associated) MT fractions, as in FIG. 5A. In all experiments, bars represent % new tubulin (mean±SD, n=3).
Tubulin was purified using minor modifications of protocols described previously (Fanara, P., Oback, B., Ashman, K., Podtelejnikov, A., Brandt, R. Identification of MINUS, a small polypeptide that functions as a microtubule nucleation suppressor. EMBO J. 18, 565-577 (1999); Fanara, P. et al. In vivo measurement of microtubule dynamics using stable isotope labeling with heavy water. Effect of taxanes. J. Biol. Chem. 279, 49940-49947 (2004). Briefly, cultured neurons were gently scraped off culture plates, washed in phosphate-buffered saline (PBS), and homogenized in microtubule-stabilizing buffer. For purification ex vivo, mice were anesthetized with isoflurane and euthanized by cervical dislocation. Brains were rapidly removed and washed in microtubule-stabilizing buffer (MSB); hippocampi were dissected and gently homogenized in MSB. To separate cytosolic tubulin dimers from microtubule polymers, post-nuclear supernatants were centrifuged at 190,000×g at 20° C. for 35 min. The supernatant or non-microtubule fraction (containing the soluble dimeric tubulin) was separated from the pellet or microtubule fraction (containing polymeric tubulin), quick-frozen and stored at −20° C. Microtubule pellets were further fractionated by sequential immunoaffinity chromatography steps (FIG. 3). In order to isolate tau-associated microtubules, TAU5 antibody was covalently coupled to epoxy-activated Sepharose beads (Amersham Pharmacia Biotech) at a concentration of 0.25 mg/ml. Approximately 0.2 mg of the microtubule pellet was incubated with TAU-5 beads in 0.5 ml MSB for 1 hour at room temperature. Unbound material was removed, the beads were washed three times in 0.5 ml of MSB, and bound material was eluted in 0.5 ml MSB containing 1M NaCl. In some experiments, MAP2-associated microtubules were captured from the TAU5-unbound material by immunoaffinity chromatography on epoxy-activated Sepharose beads coupled to MAP2 antibody (0.5 mg antibody per ml beads) using the same protocol. The relative abundance of tubulin in each preparation (Tubulin dimers and TAU5-bound, MAP2-bound, and unbound microtubule fractions) was quantified by Western blot, and tubulin from these fractions was further purified by ion exchange and size exclusion chromatography, as previously described (Fanara, P. et al. In vivo measurement of microtubule dynamics using stable isotope labeling with heavy water. Effect of taxanes. J. Biol. Chem. 279, 49940-49947 (2004)). […]

microtubule polymer = assay: Total abundance of microtubule polymer by Western blotting after CFC; assay type: in vivo, mouse; conditions: conditioned mice, nocodazole 0.2 mg/kg; data not shown
Description: Tubulin was purified using minor modifications of protocols described previously (Fanara, P., Oback, B., Ashman, K., Podtelejnikov, A., Brandt, R. Identification of MINUS, a small polypeptide that functions as a microtubule nucleation suppressor. EMBO J. 18, 565-577 (1999); Fanara, P. et al. In vivo measurement of microtubule dynamics using stable isotope labeling with heavy water. Effect of taxanes. J. Biol. Chem. 279, 49940-49947 (2004). Briefly, cultured neurons were gently scraped off culture plates, washed in phosphate-buffered saline (PBS), and homogenized in microtubule-stabilizing buffer. […] The relative abundance of tubulin in each preparation (Tubulin dimers and TAU5-bound, MAP2-bound, and unbound microtubule fractions) was quantified by Western blot, and tubulin from these fractions was further purified by ion exchange and size exclusion chromatography, as previously described (Fanara, P. et al. In vivo measurement of microtubule dynamics using stable isotope labeling with heavy water. Effect of taxanes. J. Biol. Chem. 279, 49940-49947 (2004)).
To test the role of microtubule/tubulin exchange in hippocampus-dependent memory, we treated animals with nocodazole (0.2 mg/kg), a microtubule-depolymerizing agent, four hours prior to CFC training (FIG. 10A). […] The total abundance of microtubule polymer, as detected by Western blotting, was decreased as well (data not shown).

[2] = dose-dependence experiment, 24 hours post stimulation

| SMILES | label incorporation into new MAP2/STOP-MTs ([1]; 0.48 nmol glutamate ICVC, 2H2O labeling 8 hours) | label incorporation into new MAP2/STOP-MTs ([1]; 0.48 nmol glutamate ICVC, 2H2O labeling 24 hours) | fractional synthesis of tubulin dimers ([1]; 0.48 nmol glutamate ICVC, 8 and 24 hours labeling, vs controls) | tau-nonassociated microtubules exchanged with free tubulin ([1]; 0.48 nmol glutamate ICVC, 8 hours) | labeling of cold-stable (axonal shaft) microtubules ([1]; 0.48 nmol glutamate ICVC, 8 hours, vs controls) | tau-nonassociated microtubules exchanged with free tubulin ([1]; 0.48 nmol glutamate ICVC, 24 hours) | cold-stable microtubules equilibrated with free tubulin ([1]; 0.48 nmol glutamate ICVC, 24 hours, MT label as percentage of tubulin dimer label) | label incorporation into cold stable (CS) MTs ([1]; 0.48 nmol glutamate ICVC, 24 hours, vs controls) | label incorporation into cold stable (CS) MTs ([1]; 0.48 nmol glutamate ICVC, 24 hours, vs controls, listed as Glutamate) | exchange of tau-associated microtubules with tubulin dimers ([1]; 8 hours after stimulation with glutamate) | dynamics of tau-associated microtubules ([1]; 24 hours after stimulation with glutamate, vs controls) | fractional tubulin synthesis ([1]; dose-dependence experiment: 2H2O started 24 hours before varying amounts of glutamate, sacrifice 24 hours post infusion) | decreased label incorporation in tau-associated microtubules [1, 2] | increased tubulin incorporation into dendritic and axonal shaft microtubules [1, 2] | total abundance of microtubule polymer (Western blotting) (microtubule polymer) |
| --- | --- | --- | --- | --- | --- | --- | --- | --- | --- | --- | --- | --- | --- | --- | --- |
| N[C@@H](CCC(=O)[O-])C(=O)[O-].[K+].[K+] [glutamate, potassium L-glutamate] | stimulated | stimulated | somewhat enhanced | ca. 80% | indistinguishable from controls | ca. 80% | about 40% | increased | stimulated | highly exchanged | less dynamic than controls | at most slight effects | glutamate-dose dependent | glutamate-dose dependent | – |
| COC(=O)Nc1nc2ccc(C(=O)c3cccs3)cc2[nH]1 [nocodazole] | – | – | – | – | – | – | – | – | – | – | – | – | – | – | decreased |
